Experimental data: US12679836B2, “4H-pyrrolo[3,2-c]pyridin-4-one compounds” (Bayer Aktiengesellschaft, priority 2019, dated 2026)

Tests used:
Type in all cases: cell-based
[1] = target: Ba/F3-EGFR-H773_V774insNPH cells (Homo sapiens, UniProt P00533, DUP771-773, cells depend on it); assay: Ba/F3 cell survival assay, EGFR H773_V774insNPH; conditions: read-out: BA/F3 (EGFR 773_774insNPH) IC50 [mol/l]; without IL-3, without EGF, 48 h
Description: (§1) 293T cells from ATCC were transfected with pBABEpuro expression constructs for mutant EGFR (V769_D770insASV, D770_N771insNPG, N771_P772insH, H773_V774insNPH, E746_A750del, L858R, D770_N771insSVD C797S, E746_A750del C797S, L858R C797S, L861Q) or mutant ERBB2 (A775_G776insYVMA) and pCL-Eco packaging vector using Fugene-6 transfection reagent from Promega. Plates were incubated at 37° C. for 48 h. Retrovirus was harvested by filtering the media supernatant through a 0.45 μm filter.
(§2) Ba/F3 cells purchased from DSMZ were grown in RPMI+10% FBS+10 ng/mL IL-3 and infected with filtered retroviral supernatant at a 1:2 dilution. Polybrene was added to a concentration of 8 μg/mL, plates were spun for 90 min, and incubated overnight at 37° C. 2 μg/mL puromycin was added to the infected cells 24 h after infection and cells were continually grown in the presence of puromycin and 10 ng/mL IL-3. Following stably expressing Ba/F3 cell lines were generated: Ba/F3-EGFR-V769_D770insASV, Ba/F3-EGFR-D770_N771insNPG, Ba/F3-EGFR-N771_P772insH, Ba/F3-EGFR-H773_V774insNPH, Ba/F3-EGFR-E746_A750del, Ba/F3-EGFR-L858R, Ba/F3-EGFR-D770_N771 insSVD C797S, Ba/F3-EGFR-E746_A750del C797S, Ba/F3-EGFR-L858R C797S, Ba/F3-EGFR L861Q and Ba/F3-ERBB2-A775_G776insYVMA (Ba/F3-vector-control).
(§3) For cell survival assays, Ba/F3 cells were grown to a density of 1-2 million cells per mL, spun down and resuspended in media without IL-3, and replated at a concentration 200,000-500,000 cells per mL. The cells ectopically expressing WT EGFR plated with 10 ng/mL Millipore Culture grade EGF and Ba/F3 cells containing mutant EGFR or Mutant ERBB2 were cultivated without EGF. The cells ectopically expressing pBABEpuro empty vector were plated with 10 ng/mL IL-3.
(§4) 2 days later, cells were plated in 50 μL in a 384 well plate at a concentration of 4000 cells per well for cells assayed in the absence of IL-3 and 2000 cells per well for cells assayed in the presence of IL-3. 100 nL of compound was added to each well using a 100 nL pin head, and plates were incubated at 37° C. for 48 h.
(§5) Cell viability was measured by adding 20 μL of Cell Titer-Glo Luminescent Cell Viability Reagent diluted 1:3 in PBS. Plates were sealed with Perkin Elmer Top-Seal, inverted several times to mix, and immediately centrifuged at 1000 rpm for 2 min. Plates were incubated in low light conditions for 8-10 min and luminescence was measured.

Ba/F3-EGFR L861Q cells = Ba/F3-EGFR L861Q cells (Homo sapiens, UniProt P00533, L861Q, cells depend on it); assay: Ba/F3 cell survival assay, EGFR L861Q; conditions: without IL-3, without EGF, 48 h; read-out: BA/F3 (EGFR L861Q) IC50
Chain of Ba/F3-EGFR L861Q cells (P00533 whole entry L861Q): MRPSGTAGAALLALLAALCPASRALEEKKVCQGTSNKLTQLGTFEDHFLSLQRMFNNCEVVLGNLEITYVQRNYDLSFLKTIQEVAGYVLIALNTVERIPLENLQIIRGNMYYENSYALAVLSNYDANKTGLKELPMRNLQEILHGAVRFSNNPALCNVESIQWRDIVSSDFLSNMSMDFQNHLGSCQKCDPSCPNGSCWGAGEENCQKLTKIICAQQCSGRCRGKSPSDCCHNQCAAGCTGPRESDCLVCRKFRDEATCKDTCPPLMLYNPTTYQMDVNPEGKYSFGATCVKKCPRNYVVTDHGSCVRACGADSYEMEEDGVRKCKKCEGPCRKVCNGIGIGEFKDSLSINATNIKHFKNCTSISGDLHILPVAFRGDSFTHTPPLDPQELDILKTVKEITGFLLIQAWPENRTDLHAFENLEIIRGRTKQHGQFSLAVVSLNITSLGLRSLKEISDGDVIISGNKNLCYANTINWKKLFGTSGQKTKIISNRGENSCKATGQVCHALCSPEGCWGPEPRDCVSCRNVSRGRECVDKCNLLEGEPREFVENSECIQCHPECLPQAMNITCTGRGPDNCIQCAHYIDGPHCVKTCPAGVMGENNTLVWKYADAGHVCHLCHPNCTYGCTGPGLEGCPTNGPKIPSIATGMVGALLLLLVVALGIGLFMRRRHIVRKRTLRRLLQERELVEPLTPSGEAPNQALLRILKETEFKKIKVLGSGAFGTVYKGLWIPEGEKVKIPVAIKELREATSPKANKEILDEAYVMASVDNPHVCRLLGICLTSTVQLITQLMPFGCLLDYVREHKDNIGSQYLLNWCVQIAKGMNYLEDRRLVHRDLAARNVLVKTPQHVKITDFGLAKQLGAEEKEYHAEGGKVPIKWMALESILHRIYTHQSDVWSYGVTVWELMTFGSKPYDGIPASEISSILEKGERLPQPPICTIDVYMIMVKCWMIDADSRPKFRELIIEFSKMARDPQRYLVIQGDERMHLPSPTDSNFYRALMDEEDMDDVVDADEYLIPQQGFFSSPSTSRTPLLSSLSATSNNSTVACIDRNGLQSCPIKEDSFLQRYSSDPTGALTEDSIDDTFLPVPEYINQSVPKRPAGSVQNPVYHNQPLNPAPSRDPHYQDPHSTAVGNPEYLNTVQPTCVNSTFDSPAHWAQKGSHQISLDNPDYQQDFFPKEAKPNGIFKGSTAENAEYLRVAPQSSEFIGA
Description: as §1, §2, §3, §4, §5

[2] = target: Ba/F3-EGFR-D770_N771insNPG cells (Homo sapiens, UniProt P00533, INS772GNP, cells depend on it); assay: Ba/F3 cell survival assay, EGFR D770_N771insNPG; conditions: without IL-3, without EGF, 48 h; read-out: BA/F3 (insNPG) IC50
Description: as §1, §2, §3, §4, §5

[3] = target: Ba/F3-ERBB2-A775_G776insYVMA cells (Homo sapiens, UniProt P04626, DUP772-775, cells depend on it); assay: Ba/F3 cell survival assay, ERBB2 A775_G776insYVMA; conditions: without IL-3, without EGF, 48 h; read-out: BA/F3 (ERBB2 A775_G776 insYVMA) IC50
Description: as §1, §2, §3, §4, §5

[4] = target: Ba/F3-EGFR-L858R C797S cells (Homo sapiens, UniProt P00533, C797S/L858R, cells depend on it); assay: Ba/F3 cell survival assay, EGFR L858R C797S; conditions: without IL-3, without EGF, 48 h; read-out: BA/F3 (EGFR L858R C797S) IC50
Description: as §1, §2, §3, §4, §5

[5] = target: Ba/F3-EGFR-D770_N771 insSVD C797S cells (Homo sapiens, UniProt P00533, DUP768-770/C797S, cells depend on it); assay: Ba/F3 cell survival assay, EGFR D770_N771insSVD C797S; conditions: without IL-3, without EGF, 48 h; read-out: BA/F3 (EGFR 0770_N771 insSVD C797S) IC50
Description: as §1, §2, §3, §4, §5

[6] = target: Ba/F3-EGFR-E746_A750del cells (Homo sapiens, UniProt P00533, DEL746-750, cells depend on it); assay: Ba/F3 cell survival assay, EGFR E746_A750del; conditions: without IL-3, without EGF, 48 h; read-out: BA/F3 (EGFR E746_A750del) IC50
Description: as §1, §2, §3, §4, §5

Ba/F3-EGFR-L858R cells = Ba/F3-EGFR-L858R cells (Homo sapiens, UniProt P00533, L858R, cells depend on it); assay: Ba/F3 cell survival assay, EGFR L858R; conditions: without IL-3, without EGF, 48 h; read-out: BA/F3 (EGFR L858R) IC50
Chain of Ba/F3-EGFR-L858R cells (P00533 whole entry L858R): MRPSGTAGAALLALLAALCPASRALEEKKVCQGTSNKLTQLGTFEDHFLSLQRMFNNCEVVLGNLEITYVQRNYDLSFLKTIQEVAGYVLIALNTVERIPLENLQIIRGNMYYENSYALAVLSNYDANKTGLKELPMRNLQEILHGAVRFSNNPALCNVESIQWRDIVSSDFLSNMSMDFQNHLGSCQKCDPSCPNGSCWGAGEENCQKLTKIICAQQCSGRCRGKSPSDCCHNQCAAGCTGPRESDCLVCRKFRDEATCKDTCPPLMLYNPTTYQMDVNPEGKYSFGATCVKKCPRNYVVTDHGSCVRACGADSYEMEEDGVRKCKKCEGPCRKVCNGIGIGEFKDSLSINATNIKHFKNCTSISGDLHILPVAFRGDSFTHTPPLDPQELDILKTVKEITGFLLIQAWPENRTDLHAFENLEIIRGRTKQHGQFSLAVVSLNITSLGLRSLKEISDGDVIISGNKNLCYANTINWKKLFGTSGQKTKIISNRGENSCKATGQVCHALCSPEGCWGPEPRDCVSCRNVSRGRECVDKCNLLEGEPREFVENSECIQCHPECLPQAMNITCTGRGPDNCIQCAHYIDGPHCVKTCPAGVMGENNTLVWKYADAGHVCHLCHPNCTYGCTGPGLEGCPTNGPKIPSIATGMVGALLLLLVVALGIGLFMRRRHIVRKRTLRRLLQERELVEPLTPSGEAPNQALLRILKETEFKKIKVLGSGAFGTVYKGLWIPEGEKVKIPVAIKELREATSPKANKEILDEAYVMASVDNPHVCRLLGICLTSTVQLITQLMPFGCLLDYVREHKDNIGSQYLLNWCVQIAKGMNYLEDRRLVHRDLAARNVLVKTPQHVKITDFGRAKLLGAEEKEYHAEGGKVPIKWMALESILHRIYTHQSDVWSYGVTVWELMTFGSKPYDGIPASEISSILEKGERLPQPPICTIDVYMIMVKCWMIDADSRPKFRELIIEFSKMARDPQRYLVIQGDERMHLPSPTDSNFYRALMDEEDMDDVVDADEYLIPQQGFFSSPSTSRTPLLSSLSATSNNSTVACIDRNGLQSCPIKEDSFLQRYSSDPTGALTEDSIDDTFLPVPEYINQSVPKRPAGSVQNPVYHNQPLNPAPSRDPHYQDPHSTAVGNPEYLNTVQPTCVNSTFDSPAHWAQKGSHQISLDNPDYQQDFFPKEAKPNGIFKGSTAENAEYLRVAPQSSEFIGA
Description: as §1, §2, §3, §4, §5

[7] = target: Ba/F3-EGFR-N771_P772insH cells (Homo sapiens, UniProt P00533, INS771H, cells depend on it); assay: Ba/F3 cell survival assay, EGFR N771_P772insH; conditions: without IL-3, without EGF, 48 h; read-out: BA/F3 (EGFR N771_772 insH) IC50
Chain of Ba/F3-EGFR-N771_P772insH cells (P00533 with tags, fused parts or gaps INS771H): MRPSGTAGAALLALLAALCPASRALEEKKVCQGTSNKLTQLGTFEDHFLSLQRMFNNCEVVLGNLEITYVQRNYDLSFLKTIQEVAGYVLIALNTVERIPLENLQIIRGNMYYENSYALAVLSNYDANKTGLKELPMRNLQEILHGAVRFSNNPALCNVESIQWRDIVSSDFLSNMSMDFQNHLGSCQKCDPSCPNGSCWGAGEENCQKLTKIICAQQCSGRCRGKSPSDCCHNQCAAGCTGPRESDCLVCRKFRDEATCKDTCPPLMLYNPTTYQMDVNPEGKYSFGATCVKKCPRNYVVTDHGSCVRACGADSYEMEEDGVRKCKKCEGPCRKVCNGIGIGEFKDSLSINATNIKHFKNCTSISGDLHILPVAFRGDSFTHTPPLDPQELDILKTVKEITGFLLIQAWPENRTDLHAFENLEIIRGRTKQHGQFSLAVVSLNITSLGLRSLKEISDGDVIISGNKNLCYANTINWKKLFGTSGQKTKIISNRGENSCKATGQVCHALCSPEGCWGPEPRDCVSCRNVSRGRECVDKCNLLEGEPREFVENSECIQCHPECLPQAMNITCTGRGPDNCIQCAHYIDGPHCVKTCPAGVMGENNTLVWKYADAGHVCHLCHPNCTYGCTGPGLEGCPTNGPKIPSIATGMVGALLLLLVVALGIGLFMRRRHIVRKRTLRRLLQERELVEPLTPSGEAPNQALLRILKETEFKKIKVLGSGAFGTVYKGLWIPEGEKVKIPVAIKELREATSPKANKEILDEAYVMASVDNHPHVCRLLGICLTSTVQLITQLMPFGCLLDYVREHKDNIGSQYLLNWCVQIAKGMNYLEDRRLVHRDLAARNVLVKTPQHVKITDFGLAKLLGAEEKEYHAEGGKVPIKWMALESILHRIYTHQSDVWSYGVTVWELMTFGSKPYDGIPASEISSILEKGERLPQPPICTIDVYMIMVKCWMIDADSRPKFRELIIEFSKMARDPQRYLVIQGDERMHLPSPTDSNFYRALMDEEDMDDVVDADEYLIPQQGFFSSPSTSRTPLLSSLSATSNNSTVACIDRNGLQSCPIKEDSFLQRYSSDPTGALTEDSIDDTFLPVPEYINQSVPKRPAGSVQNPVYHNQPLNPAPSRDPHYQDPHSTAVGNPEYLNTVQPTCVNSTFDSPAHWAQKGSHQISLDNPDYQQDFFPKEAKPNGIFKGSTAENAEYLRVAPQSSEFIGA
Description: as §1, §2, §3, §4, §5

[8] = target: Ba/F3-EGFR-V769_D770insASV cells (Homo sapiens, UniProt P00533, DUP767-769, cells depend on it); assay: Ba/F3 cell survival assay, EGFR V769_D770insASV; conditions: without IL-3, without EGF, 48 h; read-out: BA/F3 (ASV) IC50
Description: as §1, §2, §3, §4, §5

Chain of Ba/F3-EGFR-H773_V774insNPH cells (P00533 with tags, fused parts or gaps DUP771-773): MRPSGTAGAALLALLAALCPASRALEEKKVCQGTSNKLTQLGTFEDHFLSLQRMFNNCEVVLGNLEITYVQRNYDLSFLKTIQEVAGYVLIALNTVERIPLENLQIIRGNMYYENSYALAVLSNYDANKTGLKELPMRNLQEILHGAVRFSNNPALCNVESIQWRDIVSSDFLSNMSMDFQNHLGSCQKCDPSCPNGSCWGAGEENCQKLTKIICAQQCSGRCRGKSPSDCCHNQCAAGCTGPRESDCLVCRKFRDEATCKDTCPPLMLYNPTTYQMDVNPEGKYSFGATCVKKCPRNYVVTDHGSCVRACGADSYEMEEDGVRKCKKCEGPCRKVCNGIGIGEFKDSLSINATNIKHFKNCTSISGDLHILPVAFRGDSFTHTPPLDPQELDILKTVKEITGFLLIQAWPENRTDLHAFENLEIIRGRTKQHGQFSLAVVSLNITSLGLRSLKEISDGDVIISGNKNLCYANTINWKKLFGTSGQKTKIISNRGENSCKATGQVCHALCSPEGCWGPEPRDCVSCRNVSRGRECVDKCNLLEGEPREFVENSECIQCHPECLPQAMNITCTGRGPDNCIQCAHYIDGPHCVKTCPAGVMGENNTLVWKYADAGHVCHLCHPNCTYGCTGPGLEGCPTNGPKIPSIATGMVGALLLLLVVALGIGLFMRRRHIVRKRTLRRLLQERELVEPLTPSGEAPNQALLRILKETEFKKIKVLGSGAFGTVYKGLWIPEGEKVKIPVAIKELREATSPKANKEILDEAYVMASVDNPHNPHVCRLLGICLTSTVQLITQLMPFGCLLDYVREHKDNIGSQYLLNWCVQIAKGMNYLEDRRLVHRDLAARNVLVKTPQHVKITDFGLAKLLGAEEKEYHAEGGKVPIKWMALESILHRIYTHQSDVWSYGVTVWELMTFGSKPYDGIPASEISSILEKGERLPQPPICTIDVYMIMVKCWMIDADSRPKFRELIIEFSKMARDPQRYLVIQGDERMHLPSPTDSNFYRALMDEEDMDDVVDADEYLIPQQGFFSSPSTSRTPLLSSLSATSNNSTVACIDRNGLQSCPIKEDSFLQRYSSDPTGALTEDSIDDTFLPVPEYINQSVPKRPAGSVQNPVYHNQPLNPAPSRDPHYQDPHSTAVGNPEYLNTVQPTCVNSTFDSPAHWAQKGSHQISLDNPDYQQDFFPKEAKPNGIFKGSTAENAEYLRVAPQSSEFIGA

Which GI50 [1] does the source give for CCc1c(Cl)cccc1Nc1c(-c2ccncc2OC[C@@H]2CN(C)CCO2)[nH]c2c1C(=O)NCC2 [Example 56, 3-(3-chloro-2-ethylanilino)-2-(3-{[(2S)-4-methylmorpholin-2-yl]methoxy}pyridin-4-yl)-1,5,6,7-tetrahydro-4H-pyrrolo[3,2-c]pyridin-4-one] here?
The GI50 was 0.0489 µM.

What about the GI50 (Ba/F3-EGFR L861Q cells) of the same molecule?
The GI50 was 0.0295 µM.

And the GI50 [2]?
Its GI50 is 0.00696 µM.

What about the GI50 [3] of the same molecule?
The GI50 was 0.0135 µM.

What about the GI50 [4] of the same molecule?
The GI50 was 0.00131 µM.

What about the GI50 [5] of the same molecule?
The GI50 was 0.014 µM.

And the GI50 [6]?
Its GI50 is 0.000892 µM.

What about the GI50 (Ba/F3-EGFR-L858R cells) of the same molecule?
The GI50 was 0.00134 µM.

And the GI50 [7]?
Its GI50 is 0.00736 µM.

And the GI50 [8]?
The GI50 was 0.0141 µM.
